Source: US20150119251A1, “AGRICULTURAL PLANT-PROTECTING AGENTS CONTAINING DIPEPTIDE DERIVATIVE AS ACTIVE INGREDIENT” (REPUBLIC OF KOREA (RURAL DEVELOPMENT ADMINISTRATION), priority 2012, published 2015)
Square brackets hold non-standard residues; d marks the D form. Peptide text beside a SMILES is read from it. * marks the point of attachment. ξ: configuration not given here. Ile(3ξ) = CCC(C)[C@H](N)C(=O)O; Boc = CC(C)(C)OC(=O)*; OtBu = CC(C)(C)O*

Test system: tobacco bacterial rot (Pectobacterium carotovorum)
Assay: Suppression of tobacco bacterial rot
Type: in vivo, Pectobacterium carotovorum SCC1
Procedure: A tobacco or cucumber was sown in a plastic pot with a diameter of 10 cm×13 cm, and then, 12 pots were added in a yellow box. After seeding, 100 μL was inoculated to the cotyledons of cucumber or tobacco, in which first leaf was started to come out. The test compounds were dissolved in 20% methanol to make a stock solution, and then, the stock solution was diluted to the concentrations of 1, 10, and 100 ppm.
After 7 days, the pathogen of a plant bacterial rot (Pectobacterium carotovorum SCC1) was cultured in a TSA medium for 27 hours; and then, the cultured pathogen was sprayed in a concentration of 10^8 cfu/mL to the plant leaves, and cultured at 30° C. for 3 days. The plant anthracnose germ (Colletotrichum orbiculare) was cultured in a GBA (Green bean agar) medium to induce spores for about 2 to 3 weeks. The germ was sprayed in a concentration of 10^5 cell/mL and then cultured at 26° C. for 1 day. When fourth or fifth leaf came out, 200 μL of each of the test compounds was inoculated to third leaf. After 7 days, the pathogen of the plant bacterial rot was sprayed to the plant leaves in the concentration of 10^8 cfu/mL, and then cultured at 30° C. for 3 days.
The investigation was performed with naked eyes, and the lesion relative areas were investigated until 0 to 100% according to the shortness degrees of the bacterial rot. The anthracnose was investigated by counting the number of lesions occurred on the leaves.

SMILES	Lesion outbreak rate (Table 4, tobacco, 1 ppm)	Lesion outbreak rate (Table 4, tobacco, 10 ppm)	Lesion outbreak rate (Table 4, tobacco, 100 ppm)	also measured
COC(=O)[C@H](CC(C)C)NC(=O)[C@H](CO)NC(=O)OC(C)(C)C [Compound 1] (Boc-Ser-Leu-OMe)	–	–	–	Lesion outbreak rate (Table 3, tobacco, 1 ppm): 73%; Lesion outbreak rate (Table 3, tobacco, 10 ppm): 10%; Lesion outbreak rate (Table 3, tobacco, 100 ppm): 57%
COC(=O)[C@H](CC(C)C)NC(=O)[C@@H](N)CO [Compound 2] (H-Ser-Leu-OMe)	–	–	–	Lesion outbreak rate (Table 3, tobacco, 1 ppm): 60%; Lesion outbreak rate (Table 3, tobacco, 10 ppm): 39%; Lesion outbreak rate (Table 3, tobacco, 100 ppm): 41%
COC(=O)CNC(=O)[C@H](CC(C)C)NC(=O)OC(C)(C)C [Compound 3] (Boc-Leu-Gly-OMe)	–	–	–	Lesion outbreak rate (Table 3, tobacco, 1 ppm): 13%; Lesion outbreak rate (Table 3, tobacco, 10 ppm): 68%; Lesion outbreak rate (Table 3, tobacco, 100 ppm): 80%
CCOC(=O)[C@H](C)NC(=O)[C@H](CC(C)C)NC(=O)OC(C)(C)C [Compound 9] (Boc-Leu-Ala-OEt)	–	–	–	Lesion outbreak rate (Table 3, tobacco, 1 ppm): 90%; Lesion outbreak rate (Table 3, tobacco, 10 ppm): 53%; Lesion outbreak rate (Table 3, tobacco, 100 ppm): 82%
CCOC(=O)[C@H](C)NC(=O)[C@@H](N)CC(C)C [Compound 10] (H-Leu-Ala-OEt)	–	–	–	Lesion outbreak rate (Table 3, tobacco, 1 ppm): 80%; Lesion outbreak rate (Table 3, tobacco, 10 ppm): 73%; Lesion outbreak rate (Table 3, tobacco, 100 ppm): 87%
CC(C)C[C@H](N)C(=O)N[C@@H](C)C(=O)O [Compound 11] (H-Leu-Ala-OH)	–	–	–	Lesion outbreak rate (Table 3, tobacco, 1 ppm): 30%; Lesion outbreak rate (Table 3, tobacco, 10 ppm): 46%; Lesion outbreak rate (Table 3, tobacco, 100 ppm): 21%
COC(=O)[C@H](C)NC(=O)[C@@H](NC(=O)OC(C)(C)C)C(C)C [Compound 12] (Boc-Val-Ala-OMe)	–	–	–	Lesion outbreak rate (Table 6, tobacco, 1 ppm): 45%; Lesion outbreak rate (Table 6, tobacco, 10 ppm): 33%; Lesion outbreak rate (Table 6, tobacco, 100 ppm): 25%
COC(=O)[C@H](C)NC(=O)[C@H](C)NC(=O)OC(C)(C)C [Compound 13] (Boc-Ala-Ala-OMe)	–	–	–	Lesion outbreak rate (Table 6, tobacco, 1 ppm): 100%; Lesion outbreak rate (Table 6, tobacco, 10 ppm): 100%; Lesion outbreak rate (Table 6, tobacco, 100 ppm): 28%
COC(=O)[C@H](Cc1c[nH]c2ccccc12)NC(=O)CNC(=O)OC(C)(C)C [Compound 16] (Boc-Gly-Trp-OMe)	–	–	–	Lesion outbreak rate (Table 6, tobacco, 1 ppm): 25%; Lesion outbreak rate (Table 6, tobacco, 10 ppm): 25%; Lesion outbreak rate (Table 6, tobacco, 100 ppm): 53%
COC(=O)[C@H](Cc1c[nH]c2ccccc12)NC(=O)[C@@H](NC(=O)OC(C)(C)C)C(C)C [Compound 17] (Boc-Val-Trp-OMe)	–	–	–	Lesion outbreak rate (Table 6, tobacco, 1 ppm): 100%; Lesion outbreak rate (Table 6, tobacco, 10 ppm): 25%; Lesion outbreak rate (Table 6, tobacco, 100 ppm): 100%
COC(=O)CNC(=O)CNC(=O)OC(C)(C)C [Compound 18] (Boc-Gly-Gly-OMe)	–	–	–	Lesion outbreak rate (Table 6, tobacco, 1 ppm): 80%; Lesion outbreak rate (Table 6, tobacco, 10 ppm): 75%; Lesion outbreak rate (Table 6, tobacco, 100 ppm): 68%
COC(=O)[C@@H]1CCCN1C(=O)[C@H](Cc1ccccc1)NC(=O)OC(C)(C)C [Compound 19] (Boc-Phe-Pro-OMe)	–	–	–	Lesion outbreak rate (Table 6, tobacco, 1 ppm): 49%; Lesion outbreak rate (Table 6, tobacco, 10 ppm): 42%; Lesion outbreak rate (Table 6, tobacco, 100 ppm): 50%
COC(=O)[C@@H]1CCCN1C(=O)[C@H](C)NC(=O)OC(C)(C)C [Compound 20] (Boc-Ala-Pro-OMe)	–	–	–	Lesion outbreak rate (Table 6, tobacco, 1 ppm): 56%; Lesion outbreak rate (Table 6, tobacco, 10 ppm): 63%; Lesion outbreak rate (Table 6, tobacco, 100 ppm): 51%
COC(=O)[C@@H]1CCCN1C(=O)[C@@H](NC(=O)OC(C)(C)C)C(C)C [Compound 21] (Boc-Val-Pro-OMe)	–	–	–	Lesion outbreak rate (Table 6, tobacco, 1 ppm): 37%; Lesion outbreak rate (Table 6, tobacco, 10 ppm): 46%; Lesion outbreak rate (Table 6, tobacco, 100 ppm): 35%
COC(=O)[C@@H]1CCCN1C(=O)[C@H](CC(C)C)NC(=O)OC(C)(C)C [Compound 22] (Boc-Leu-Pro-OMe)	–	–	–	Lesion outbreak rate (Table 6, tobacco, 1 ppm): 35%; Lesion outbreak rate (Table 6, tobacco, 10 ppm): 24%; Lesion outbreak rate (Table 6, tobacco, 100 ppm): 46%
COC(=O)[C@@H]1CCCN1C(=O)[C@H](CCC(N)=O)NC(=O)OC(C)(C)C [Compound 23] (Boc-Gln-Pro-OMe)	–	–	–	Lesion outbreak rate (Table 6, tobacco, 1 ppm): 25%; Lesion outbreak rate (Table 6, tobacco, 10 ppm): 52%; Lesion outbreak rate (Table 6, tobacco, 100 ppm): 36%
COC(=O)C1CCCN1C(=O)C(NC(=O)OC(C)(C)C)C(C)O (stereo not drawn) [Compound 24] (Boc-Thr-Pro-OMe; configuration not given here)	13%	65%	33%	–
COC(=O)[C@@H]1CCCN1C(=O)[C@H](CC(=O)OC(C)(C)C)NC(=O)OC(C)(C)C [Compound 25] (Boc-Asp(OtBu)-Pro-OMe)	50%	70%	50%	–
COC(=O)[C@@H]1CCCN1C(=O)[C@H](CC(N)=O)NC(=O)OC(C)(C)C [Compound 26] (Boc-Asn-Pro-OMe)	63%	23%	60%	–
COC(=O)[C@@H]1CCCN1C(=O)[C@@H]1CCCN1C(=O)OC(C)(C)C [Compound 27] (Boc-Pro-Pro-OMe)	33%	30%	20%	–

SMILES	Lesion outbreak rate (Table 4, tobacco, 1 ppm)	Lesion outbreak rate (Table 4, tobacco, 10 ppm)	Lesion outbreak rate (Table 4, tobacco, 100 ppm)	also measured
COC(=O)[C@@H]1CCCN1C(=O)[C@H](CCCCNC(=O)OC(C)(C)C)NC(=O)OC(C)(C)C [Compound 28] (Boc-Lys(Boc)-Pro-OMe)	20%	80%	13%	–
COC(=O)[C@@H]1CCCN1C(=O)[C@H](Cc1c[nH]cn1)NC(=O)OC(C)(C)C [Compound 29]	63%	43%	63%	–
COC(=O)[C@@H]1CCCN1C(=O)[C@H](CCC(=O)OC(C)(C)C)NC(=O)OC(C)(C)C [Compound 30] (Boc-Glu(OtBu)-Pro-OMe)	23%	36%	13%	–
COC(=O)[C@@H]1CCCN1C(=O)[C@H](CCCNC(=NC(=O)OCc1ccccc1)NC(=O)OCc1ccccc1)NC(=O)OC(C)(C)C [Compound 31]	63%	56%	73%	–
COC(=O)[C@@H]1CCCN1C(=O)[C@H](Cc1ccc(O)cc1)NC(=O)OC(C)(C)C [Compound 32] (Boc-Tyr-Pro-OMe)	78%	30%	60%	–
COC(=O)[C@H]1CCCN1C(=O)[C@@H]1CCCN1C(=O)OC(C)(C)C [Compound 33] (Boc-Pro-[dP]-OMe)	80%	38%	18%	–
CCC(C)[C@H](NC(=O)OC(C)(C)C)C(=O)N1CCC[C@@H]1C(=O)OC (some centres unmarked) [Compound 34] (Boc-[Ile(3ξ)]-[dP]-OMe)	35%	41%	24%	–
COC(=O)[C@H]1CCCN1C(=O)[C@H](Cc1ccc(O)cc1)NC(=O)OC(C)(C)C [Compound 35] (Boc-Tyr-[dP]-OMe)	18%	43%	50%	–
COC(=O)[C@H]1CCCN1C(=O)[C@H](CC(C)C)NC(=O)OC(C)(C)C [Compound 36] (Boc-Leu-[dP]-OMe)	45%	41%	38%	–
COC(=O)[C@H]1CCCN1C(=O)[C@H](CC(=O)OC(C)(C)C)NC(=O)OC(C)(C)C [Compound 37] (Boc-Asp(OtBu)-[dP]-OMe)	5%	5%	43%	–
COC(=O)[C@H]1CCCN1C(=O)CNC(=O)OC(C)(C)C [Compound 38] (Boc-Gly-[dP]-OMe)	13%	80%	60%	–
COC(=O)[C@H]1CCCN1C(=O)[C@H](CO)NC(=O)OC(C)(C)C [Compound 39] (Boc-Ser-[dP]-OMe)	35%	10%	43%	–
COC(=O)[C@H]1CCCN1C(=O)[C@H](CCSC)NC(=O)OC(C)(C)C [Compound 40] (Boc-Met-[dP]-OMe)	8%	45%	43%	–
COC(=O)[C@H]1CCCN1C(=O)[C@H](CC(N)=O)NC(=O)OC(C)(C)C [Compound 41] (Boc-Asn-[dP]-OMe)	30%	50%	18%	–
COC(=O)[C@H]1CCCN1C(=O)[C@H](Cc1ccccc1)NC(=O)OC(C)(C)C [Compound 42] (Boc-Phe-[dP]-OMe)	43%	60%	45%	–
COC(=O)[C@H]1CCCN1C(=O)[C@H](Cc1c[nH]c2ccccc12)NC(=O)OC(C)(C)C [Compound 43] (Boc-Trp-[dP]-OMe)	35%	45%	31%	–
COC(=O)[C@H]1CCCN1C(=O)[C@H](C)NC(=O)OC(C)(C)C [Compound 44] (Boc-Ala-[dP]-OMe)	46%	37%	33%	–
COC(=O)[C@H]1CCCN1C(=O)[C@H](CCC(N)=O)NC(=O)OC(C)(C)C [Compound 45] (Boc-Gln-[dP]-OMe)	83%	33%	55%	–
COC(=O)[C@H]1CCCN1C(=O)[C@H](Cc1c[nH]cn1)NC(=O)OC(C)(C)C [Compound 46]	56%	70%	48%	–
COC(=O)C1CCCN1C(=O)C(NC(=O)OC(C)(C)C)C(C)O (stereo not drawn) [Compound 47] (Boc-Thr-Pro-OMe; configuration not given here)	–	–	–	Lesion outbreak rate (Table 5, tobacco, 10 ppm): 0%; Lesion outbreak rate (Table 5, tobacco, 100 ppm): 50%
